Experimental data: patent US11566007B2, “Ras inhibitors” (Revolution Medicines, Inc., priority 2019, dated 2023)
pIC50: −log10 of the molar value.

How the values were obtained:
NCI-H358 (K-Ras G12C) = experiment: CellTiter-Glo cell viability assay, NCI-H358; format: cell-based, human; settings: Homo sapiens, NCI-H358, 120 h, NCI-H358, 5-day treatment; class symbols; read-out: Additional H358 Cell Viability assay data (K-Ras G12C, IC50)
Summary of the method: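 Luminescent viability readout on day 5 after direct compound addition to plated cells; plates sat ~30 min at room temperature before reading. Values expressed as percent of mean DMSO signal, curves fit with a four-parameter logistic model.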

KRAS G12S = KRAS G12S (Homo sapiens (Human), UniProt P01116+P62937, G12S); experiment: Ras-Raf (BRAF RBD) disruption / FRET / MOA assay, KRAS G12S; format: biochemical; settings: Ras-Raf disruption/FRET/MOA assay; class symbols; read-out: KRAS G12S FRET data IC50
Summary of the method: (§1)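 Compound-driven ternary complex of nucleotide-loaded Ras with cyclophilin A, disrupting BRAF RBD binding. 10-point 3-fold dilution from 30 μM final, 3 h at 25° C, then anti-His Eu-W1024 (10 nM) and anti-GST allophycocyanin (50 nM) for 1.5 h. IC50 from TR-FRET ratio decrease versus DMSO.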

KRAS G12V = KRAS G12V (Homo sapiens (Human), UniProt P01116+P62937, G12V); experiment: Ras-Raf (BRAF RBD) disruption / FRET / MOA assay, KRAS G12V; format: biochemical; settings: read-out: IC50* KRAS G12V FRET data
Summary of the method: as §1

KRAS G13D = KRAS G13D (Homo sapiens (Human), UniProt P01116+P62937, G13D); experiment: Ras-Raf (BRAF RBD) disruption / FRET / MOA assay, KRAS G13D; format: biochemical; settings: read-out: IC50* KRAS G13D FRET data
Summary of the method: as §1

KRAS Q61H = KRAS Q61H (Homo sapiens (Human), UniProt P01116+P62937, Q61H); experiment: Ras-Raf (BRAF RBD) disruption / FRET / MOA assay, KRAS Q61H; format: biochemical; settings: Ras-Raf disruption/FRET/MOA assay; class symbols; read-out: KRAS Q61H FRET data IC50
Summary of the method: (§2)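 Compounds (30 μM top final, 10-point 3-fold dilutions) incubated 3 h at 25° C with nucleotide-loaded Ras, cyclophilin A and BRAF RBD. Detection with 10 nM anti-His Eu-W1024 and 50 nM anti-GST allophycocyanin over another 1.5 h. Lowered TR-FRET ratio relative to DMSO wells gives IC50.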

NRAS Q61R = NRAS Q61R (Homo sapiens (Human), UniProt P01111+P62937, Q61R); experiment: Ras-Raf (BRAF RBD) disruption / FRET / MOA assay, NRAS Q61R; format: biochemical; settings: NRAS Q61R; Ras-Raf disruption/FRET/MOA assay; read-out: IC50* NRAS Q61R FRET data
Summary of the method: as §2

NRAS Q61K = NRAS Q61K (Homo sapiens (Human), UniProt P01111+P62937, Q61K); experiment: Ras-Raf (BRAF RBD) disruption / FRET / MOA assay, NRAS Q61K; format: biochemical; settings: NRAS Q61K; Ras-Raf disruption/FRET/MOA assay; read-out: IC50* NRAS Q61K FRET data
Summary of the method: as §2

Chain of KRAS G12S (P01116-2 other isoform, or with tags, fused parts or gaps G12S): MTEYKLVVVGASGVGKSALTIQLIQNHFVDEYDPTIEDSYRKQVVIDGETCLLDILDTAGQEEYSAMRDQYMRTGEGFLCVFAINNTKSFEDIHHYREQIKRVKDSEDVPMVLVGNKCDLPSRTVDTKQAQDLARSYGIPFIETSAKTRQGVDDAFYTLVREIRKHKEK
Chain of KRAS G12S (P62937 whole entry): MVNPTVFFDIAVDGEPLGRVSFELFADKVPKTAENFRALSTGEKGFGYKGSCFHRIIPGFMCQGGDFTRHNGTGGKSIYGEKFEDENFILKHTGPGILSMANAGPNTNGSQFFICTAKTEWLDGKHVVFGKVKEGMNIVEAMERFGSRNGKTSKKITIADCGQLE
Chain of KRAS Q61H (P01116-2 other isoform, or with tags, fused parts or gaps Q61H): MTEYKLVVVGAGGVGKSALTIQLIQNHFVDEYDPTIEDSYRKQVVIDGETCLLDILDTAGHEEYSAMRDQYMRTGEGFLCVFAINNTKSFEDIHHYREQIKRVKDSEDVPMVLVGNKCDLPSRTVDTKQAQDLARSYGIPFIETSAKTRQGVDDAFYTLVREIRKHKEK
Chain of KRAS Q61H (P62937 whole entry): as the sequence (P62937 whole entry) above
Chain of KRAS G12V (P01116-2 other isoform, or with tags, fused parts or gaps G12V): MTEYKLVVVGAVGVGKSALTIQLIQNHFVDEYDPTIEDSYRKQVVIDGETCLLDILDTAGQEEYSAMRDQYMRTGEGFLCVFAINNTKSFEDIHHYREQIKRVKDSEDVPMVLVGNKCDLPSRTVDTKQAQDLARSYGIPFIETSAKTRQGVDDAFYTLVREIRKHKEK
Chain of KRAS G12V (P62937 whole entry): as the sequence (P62937 whole entry) above
Chain of NRAS Q61K (P01111 whole entry Q61K): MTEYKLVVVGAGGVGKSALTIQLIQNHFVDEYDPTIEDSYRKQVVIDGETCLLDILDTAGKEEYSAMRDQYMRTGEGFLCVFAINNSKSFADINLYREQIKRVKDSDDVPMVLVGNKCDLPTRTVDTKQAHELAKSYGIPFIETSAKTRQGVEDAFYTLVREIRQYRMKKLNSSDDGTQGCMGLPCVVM
Chain of NRAS Q61K (P62937 whole entry): as the sequence (P62937 whole entry) above
Chain of NRAS Q61R (P01111 whole entry Q61R): as the sequence (P01111 whole entry Q61K) above, with K61R counted along it
Chain of NRAS Q61R (P62937 whole entry): as the sequence (P62937 whole entry) above
Chain of KRAS G13D (P01116-2 other isoform, or with tags, fused parts or gaps G13D): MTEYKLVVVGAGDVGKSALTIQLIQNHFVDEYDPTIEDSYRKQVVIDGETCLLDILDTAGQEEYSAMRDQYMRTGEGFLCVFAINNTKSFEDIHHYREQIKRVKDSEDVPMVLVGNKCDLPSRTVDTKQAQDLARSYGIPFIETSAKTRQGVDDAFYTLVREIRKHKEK
Chain of KRAS G13D (P62937 whole entry): as the sequence (P62937 whole entry) above

Row | SMILES | pIC50 (NCI-H358 (K-Ras G12C)) | pIC50 (KRAS G12S) | pIC50 (KRAS G12V) | pIC50 (KRAS G13D) | pIC50 (KRAS Q61H) | pIC50 (NRAS Q61R) | pIC50 (NRAS Q61K)
1 | C=CC(=O)Nc1ccc(C(=O)N(C)[C@H](C(=O)N[C@H]2Cc3cc(O)cc(c3)-c3ccc4c(c3)c(c(-c3cccnc3[C@H](C)OC)n4CC)CC(C)(C)COC(=O)[C@@H]3CCCN(N3)C2=O)C(C)C)nc1 (atropisomer, axis not shown) [Example A252] | 7.00 to 8.00 | 6.00 to 7.00 | 6.00 to 7.00 | 6.00 to 7.00 | 6.00 to 7.00 | 5.00 to 6.00 | 5.00 to 6.00
2 | C=CC(=O)N1CCN(C(=O)N(C)[C@H](C(=O)N[C@H]2Cc3cc(O)cc(c3)-c3ccc4c(c3)c(c(-c3cccnc3[C@H](C)OC)n4CC)CC(C)(C)COC(=O)[C@@H]3CCCN(N3)C2=O)C(C)C)CC1 (atropisomer, axis not shown) [Example A262] | 7.00 to 8.00 | 7.00 to 8.00 | 7.00 to 8.00 | 7.00 to 8.00 | 7.00 to 8.00 | 6.00 to 7.00 | 7.00 to 8.00
3 | C=CS(=O)(=O)N1CC2(CCN([C@H](C(=O)N[C@H]3Cc4cc(O)cc(c4)-c4ccc5c(c4)c(c(-c4cccnc4[C@H](C)OC)n5CC)CC(C)(C)COC(=O)[C@@H]4CCCN(N4)C3=O)C(C)C)C2=O)C1 (atropisomer, axis not shown) [Example A297] | 7.00 to 8.00 | 6.00 to 7.00 | 6.00 to 7.00 | 6.00 to 7.00 | > 8.00 | 6.00 to 7.00 | 7.00 to 8.00
4 | C=CC(=O)N1CC[C@H](C(=O)N(C)[C@H](C(=O)N[C@H]2Cc3cccc(c3)-c3ccc4c(c3)c(c(-c3cccnc3[C@H](C)OC)n4CC(F)(F)F)CC(C)(C)COC(=O)[C@@H]3CCCN(N3)C2=O)C(C)C)C1 (atropisomer, axis not shown) [Example A332] | > 8.00 | 5.00 to 6.00 | 5.00 to 6.00 | 5.00 to 6.00 | 6.00 to 7.00 | 5.00 to 6.00 | 5.00 to 6.00
5 | C=CC(=O)N1CC[C@H](C(=O)N(C)[C@H](C(=O)N[C@H]2Cc3cc(F)cc(c3)-c3ccc4c(c3)c(c(-c3cccnc3[C@H](C)OC)n4CC)CC(C)(C)COC(=O)[C@@H]3CCCN(N3)C2=O)C(C)C)C1 (atropisomer, axis not shown) [Example A342] | 7.00 to 8.00 | 5.00 to 6.00 | 5.00 to 6.00 | 5.00 to 6.00 | 6.00 to 7.00 | 5.00 to 6.00 | 5.00 to 6.00
6 | CCn1c(-c2cccnc2[C@H](C)OC)c2c3cc(ccc31)-c1cccc(c1)C[C@H](NC(=O)[C@@H](COC1CN(C(=O)C#CC(C)(C)N3CCC3)C1)C(C)C)C(=O)N1CCC[C@H](N1)C(=O)OCC(C)(C)C2 (atropisomer, axis not shown) [Example A346] | > 8.00 | < 5.00 | 5.00 to 6.00 | < 5.00 | 5.00 to 6.00 | < 5.00 | < 5.00
7 | CO[C@@H](C)c1ncccc1-c1c2c3cc(ccc3n1CC(F)(F)F)-c1cc(F)cc(c1)C[C@H](NC(=O)[C@@H](COC1CN(C(=O)C#CC(C)(C)N(C)C)C1)C(C)C)C(=O)N1CCC[C@H](N1)C(=O)OCC(C)(C)C2 (atropisomer, axis not shown) [Example A348] | > 8.00 | 5.00 to 6.00 | 5.00 to 6.00 | < 5.00 | 5.00 to 6.00 | < 5.00 | < 5.00
8 | CCn1c(-c2cccnc2[C@H](C)OC)c2c3cc(ccc31)-c1cccc(c1)C[C@H](NC(=O)[C@H](C(C)C)N1CO[C@]3(CCN(C(=O)C#CC(C)(C)N4CCC4)C3)C1=O)C(=O)N1CCC[C@H](N1)C(=O)OCC(C)(C)C2 (atropisomer, axis not shown) [Example A351] | > 8.00 | 6.00 to 7.00 | 5.00 to 6.00 | 5.00 to 6.00 | 6.00 to 7.00 | 5.00 to 6.00 | 5.00 to 6.00
9 | C=CC(=O)N1CC[C@@]2(CCN(C(=O)N(C)[C@H](C(=O)N[C@H]3Cc4nc(cs4)-c4ccc5c(c4)c(c(-c4cccnc4[C@H](C)OC)n5CC)CC(C)(C)COC(=O)[C@@H]4CCCN(N4)C3=O)C(C)C)C2)C1 (atropisomer, axis not shown) [Example A367] | 7.00 to 8.00 | 7.00 to 8.00 | 6.00 to 7.00 | 6.00 to 7.00 | 7.00 to 8.00 | 7.00 to 8.00 | 7.00 to 8.00
10 | C=CC(=O)N(C)CC1CN(C(=O)N(C)[C@H](C(=O)N[C@H]2Cc3nc(cs3)-c3ccc4c(c3)c(c(-c3cccnc3[C@H](C)OC)n4CC)CC(C)(C)COC(=O)[C@@H]3CCCN(N3)C2=O)C(C)C)C1 (atropisomer, axis not shown) [Example A368] | > 8.00 | 6.00 to 7.00 | 7.00 to 8.00 | 6.00 to 7.00 | 7.00 to 8.00 | 7.00 to 8.00 | 7.00 to 8.00
11 | C=CC(=O)N1CC[C@]2(C1)OCN([C@H](C(=O)N[C@H]1Cc3cccc(c3)-c3ccc4c(c3)c(c(-c3cccnc3[C@H](C)OC)n4CC)CC(C)(C)COC(=O)[C@@H]3CCCN(N3)C1=O)C(C)C)C2=O (atropisomer, axis not shown) [Example A371] | > 8.00 | 5.00 to 6.00 | < 5.00 | < 5.00 | 5.00 to 6.00 | < 5.00 | < 5.00
12 | CO[C@@H](C)c1ncccc1-c1c2c3cc(ccc3n1CC(F)(F)F)N1CCO[C@@H](C[C@H](NC(=O)[C@@H](COC3CN(C(=O)C#CC(C)(C)N(C)C)C3)C(C)C)C(=O)N3CCC[C@H](N3)C(=O)OCC(C)(C)C2)C1 (atropisomer, axis not shown) [Example A375, (2R)-2-(((1-(4-(dimethylamino)-4-methylpent-2-ynoyl)azetidin-3-yl)oxy)methyl)-N-((2^2S,6^3S,4S)-1^2-(2-((S)-1-methoxyethyl)pyridin-3-yl)-10,10-dimethyl-5,7-dioxo-1^1-(2,2,2-trifluoroethyl)-6^1,6^2,6^3,6^4,6^5,6^6-hexahydro-1^1H-8-oxa-2(4,2)-morpholina-1(5,3)-indola-6(1,3)-pyridazinacycloundecaphane-4-yl)-3-methylbutanamide] | > 8.00 | < 5.00 | 5.00 to 6.00 | < 5.00 | < 5.00 | < 5.00 | < 5.00
13 | C=CC(=O)N(C)[C@@H]1CCCN(C(=O)N(C)[C@H](C(=O)N[C@H]2Cc3nc(cs3)-c3ccc4c(c3)c(c(-c3cccnc3[C@H](C)OC)n4CC)CC(C)(C)COC(=O)[C@@H]3CCCN(N3)C2=O)C(C)C)C1 (atropisomer, axis not shown) [Example A382] | > 8.00 | 7.00 to 8.00 | 6.00 to 7.00 | 6.00 to 7.00 | 7.00 to 8.00 | 7.00 to 8.00 | 7.00 to 8.00
14 | C=CC(=O)N(C)C1CCN(C(=O)N(C)[C@H](C(=O)N[C@H]2Cc3nc(cs3)-c3ccc4c(c3)c(c(-c3cccnc3[C@H](C)OC)n4CC)CC(C)(C)COC(=O)[C@@H]3CCCN(N3)C2=O)C(C)C)CC1 (atropisomer, axis not shown) [Example A383] | > 8.00 | 7.00 to 8.00 | 7.00 to 8.00 | 6.00 to 7.00 | 7.00 to 8.00 | 7.00 to 8.00 | 7.00 to 8.00
15 | C=CC(=O)N1C[C@@H](C)N(C(=O)N(C)[C@H](C(=O)N[C@H]2Cc3nc(cs3)-c3ccc4c(c3)c(c(-c3cccnc3[C@H](C)OC)n4CC)CC(C)(C)COC(=O)[C@@H]3CCCN(N3)C2=O)C(C)C)[C@H](C)C1 (atropisomer, axis not shown) [Example A388] | > 8.00 | 7.00 to 8.00 | 7.00 to 8.00 | 7.00 to 8.00 | > 8.00 | > 8.00 | > 8.00
16 | C=CC(=O)N1C[C@@H]2CN(C(=O)N(C)[C@H](C(=O)N[C@H]3Cc4nc(cs4)-c4ccc5c(c4)c(c(-c4cccnc4[C@H](C)OC)n5CC)CC(C)(C)COC(=O)[C@@H]4CCCN(N4)C3=O)C(C)C)C[C@@H]2C1 (atropisomer, axis not shown) [Example A389] | > 8.00 | 7.00 to 8.00 | 7.00 to 8.00 | 6.00 to 7.00 | 7.00 to 8.00 | 7.00 to 8.00 | 7.00 to 8.00
17 | C=CC(=O)N(C)[C@@H]1CCN(C(=O)N(C)[C@H](C(=O)N[C@H]2Cc3nc(cs3)-c3ccc4c(c3)c(c(-c3cccnc3[C@H](C)OC)n4CC)CC(C)(C)COC(=O)[C@@H]3CCCN(N3)C2=O)C(C)C)C1 (atropisomer, axis not shown) [Example A416] | > 8.00 | 6.00 to 7.00 | 6.00 to 7.00 | 6.00 to 7.00 | 7.00 to 8.00 | 6.00 to 7.00 | 7.00 to 8.00
